Results reported in patent publication US11684614B2, “Formulations of hydroxypyridonate actinide/lanthanide decorporation agents” (priority 2017, dated 2023).
Where “and” joins values, the source holds several entries; their conditions need not be identical. Equal values may be shown once. Read-outs that look alike come from different tables or passages of the source.

What was measured:
[1] = In vitro human liver microsome stability; assay type: in vitro ADME
[2] = GLP single oral dose cardiovascular assessment in beagle dogs (electrocardiogram, blood pressure); assay type: in vivo; settings: 37.5, 75, or 150 mg/kg single oral dose
Description: Cardiovascular parameters in beagle dogs after a single oral administration of formulated capsules was determined in a GLP study
Electrocardiograms and blood pressure were evaluated from 3 male and 3 female beagle dogs per dose group (0, 37.5, 75, or 150 mg/kg) at pretest, 1 and 4 hours post-dose, and 7 days after a single oral dose of formulated material (TABLE 8.1). […] Instances of increased or decreased blood pressure (hypertension or hypotension) in various dogs were considered sporadic or due to stress, excitement, or struggling during the time of recording and not test article related. In summary, electrocardiogram and blood pressure assessments in beagle dogs raised no cardiovascular safety concerns.

[3] = assay type: in vivo, Swiss-Webster mice
From the text: Formulated material was used in the single dose in vivo ADME characterization studies in Sprague Dawley rats and Swiss-Webster mice with 14C-labeled 3,4,3-L1(1,2-HOPO).
Pharmacokinetic parameters and disposition/biodistribution of 3,4,3-L1(1,2-HOPO) were characterized in vivo (with the aid of two 14C labels on the spermine backbone of the parent product) in two non-GLP studies using Swiss-Webster mice and Sprague Dawley rats. The study designs for these two studies are shown in TABLE 5.1 and TABLE 5.2, respectively. Groups of six mice (3 male, 3 female) were given a single dose of [14C]-3,4,3-L1(1,2-HOPO) via iv, ip, or po routes, respectively. An additional group of six mice (3 male, 3 female) were administered the 14C-labeled API with permeability enhancer (10% sodium oleate) by oral gavage (po). Similarly, groups of six rats (3 male, 3 female) were administered a single iv dose of the 14C-labeled API or a single po dose of the 14C-labeled API with 10% sodium oleate. In each of these studies, samples were collected at scheduled time points up to 24 hr post-dose and analyzed for 14C content using liquid scintillation counting. Blood, liver, kidney, feces and urine were collected and analyzed from the mice. Blood, brain, liver, kidney, lungs, spleen, skeletal muscle tissues, gastrointestinal (GI) tract samples, carcasses, feces, and urine were collected and analyzed from the rats.

Stability in plasma = assay type: in vitro ADME
[4] = Distribution coefficient measurement; assay type: physicochemical; settings: for Dow / Log(Dow): listed as 3,4,3-LI(1,2-HOPO)
[5] = GLP single oral dose pharmacokinetic assessment in beagle dogs; assay type: in vivo
Description: Pharmacokinetic parameters in beagle dogs after a single oral administration of formulated capsules was determined in a GLP study. A validated bioanalytical method was used to determine the plasma concentration in 3 dogs/sex after capsule administration of 37.5, 75, and 150 mg/kg (50, 100, and 200 μmol/kg) of clinically formulated 3,4,3-L1(1,2-HOPO). […] Similarly, mean exposure, based on AUCinf, was 1979±777 hr·ng/ml and 4741 hr·ng/ml for low-dose males and females, respectively; 4317±1721 hr·ng/ml and 8610 hr·ng/ml for mid-dose males and females, respectively; and 12022±5458 hr·ng/ml and 8305±1607 hr·ng/ml for high-dose males and females, respectively. […] The mean t½ was consistently short across dose groups and ranged from 0.5 to 0.9 hr.

[6] = po, female mice, formulated with sodium oleate
[7] = po, female mice, without sodium oleate
[8] = po, male mice, formulated with sodium oleate
[9] = po, male mice, without sodium oleate
[10] = Buffering Agent 1: 7.5 E−02 M HCl, pH 1.18, samples A11-A13
[11] = Buffering Agent 1: 7.5 E−02 M HCl, pH 1.20, samples B11-B13
[12] = Buffering Agent 2: 7.5 E−03 M HCl, pH 2.15, samples A11-A13
[13] = Buffering Agent 2: 7.5 E−03 M HCl, pH 2.16, samples B11-B13
[14] = Buffering Agent 3: 7.5 E−04 M HCl, pH 3.21, samples A31-A33
[15] = Buffering Agent 4: 1 E−02 M Acetic Acid, pH 4.19, samples A41-A43
[16] = Buffering Agent 5: 1 E−02 M Acetic Acid, pH 5.13, samples A51-A53
[17] = Buffering Agent 5: 1 E−02 M Acetic Acid, pH 5.20, samples B51-B53
[18] = Buffering Agent 6: 1 E−02 M MES, pH 6.30, samples A61-A63
[19] = Buffering Agent 7: 1 E−02 M HEPES, pH 6.75, samples A71-A73
[20] = Buffering Agent 8: 1 E−02 M HEPES, pH 7.42, samples A81-A83
[21] = Buffering Agent 9: 1 E−02 M HEPES, pH 8.00, samples A91-A93

O=C(NCCCN(CCCCN(CCCNC(=O)c1cccc(=O)n1O)C(=O)c1cccc(=O)n1O)C(=O)c1cccc(=O)n1O)c1cccc(=O)n1O [3,4,3-L1(1,2-HOPO)]
stability in human liver microsomes [1]: relatively stable
electrocardiographic, heart rate, or blood pressure findings [2]: no electrocardiographic, heart rate, or blood pressure findings
oral bioavailability (F) of radioactive compound ([3]; female mice): 2.6%
oral bioavailability (F) of radioactive compound ([3]; male mice): 1.2%
enhancement of exposure parameters with sodium oleate ([3]; mice): 2- to 3 fold
oral bioavailability improvement with sodium oleate ([3]; mice): about 2 fold
Tmax ([3]; oral dose, rodents (mice)): ~42 min
AUC calculated over 2 hr posttreatment [3, 6]: 35.1±18.9 min Pg-eq/ml
Cmax [3, 6]: 1.4 Pg-eq/ml
AUC calculated over 2 hr posttreatment [3, 7]: 23.0±15.4 min Pg-eq/ml
Cmax [3, 7]: 0.55 Pg-eq/ml
AUC calculated over 2 hr posttreatment [3, 8]: 17.4±6.7 min Pg-eq/ml
Cmax [3, 8]: 0.93 Pg-eq/ml
AUC calculated over 2 hr posttreatment [3, 9]: 8.3±6.2 min Pg-eq/ml
Cmax [3, 9]: 0.32 Pg-eq/ml
Cmax improvement with sodium oleate ([3]; po, mice): approximately 3 fold
stability in plasma (Stability in plasma): stable
Dow [4, 10]: 0.122 and 0.115 and 0.112
Log(Dow) [4, 10]: −0.915 and −0.938 and −0.952
Log(Dow), unlabelled summary row (mean of samples) ([4]; Buffering Agent 1: 7.5 E−02 M HCl, pH 1.18, series A): −0.935
Dow [4, 11]: 0.318 and 0.327 and 0.285
Log(Dow) [4, 11]: −0.497 and −0.485 and −0.545
Log(Dow), unlabelled summary row (mean of samples) ([4]; Buffering Agent 1: 7.5 E−02 M HCl, pH 1.20, series B): −0.509
Dow [4, 12]: 0.093 and 0.105 and 0.110
Log(Dow) [4, 12]: −1.031 and −0.980 and −0.958
Log(Dow), unlabelled summary row (mean of samples) ([4]; Buffering Agent 2: 7.5 E−03 M HCl, pH 2.15, series A): −0.990
Dow [4, 13]: 0.503 and 0.491 and 0.469
Log(Dow) [4, 13]: −0.299 and −0.309 and −0.329
Log(Dow), unlabelled summary row (mean of samples) ([4]; Buffering Agent 2: 7.5 E−03 M HCl, pH 2.16, series B): −0.312
Log(Dow), unlabelled summary row (mean of samples) ([4]; Buffering Agent 3: 7.5 E−04 M HCl, pH 3.13, series B): −1.499
Dow [4, 14]: 0.180 and 0.170 and 0.184
Log(Dow) [4, 14]: −0.744 and −0.769 and −0.735
Log(Dow), unlabelled summary row (mean of samples) ([4]; Buffering Agent 3: 7.5 E−04 M HCl, pH 3.21, series A): −0.750
Log(Dow), unlabelled summary row (mean of samples) ([4]; Buffering Agent 4: 1 E−02 M Acetic Acid, pH 4.00, series B): −1.566
Dow [4, 15]: 0.076 and 0.061 and 0.068
Log(Dow) [4, 15]: −1.119 and −1.218 and −1.166
Log(Dow), unlabelled summary row (mean of samples) ([4]; Buffering Agent 4: 1 E−02 M Acetic Acid, pH 4.19, series A): −1.168
Dow [4, 16]: 0.044 and 0.027 and 0.050
Log(Dow) [4, 16]: −1.360 and −1.564 and −1.299
Log(Dow), unlabelled summary row (mean of samples) ([4]; Buffering Agent 5: 1 E−02 M Acetic Acid, pH 5.13, series A): −1.408
Dow [4, 17]: 0.056 and 0.082 and 0.103
Log(Dow) [4, 17]: −1.251 and −1.086 and −0.989
Log(Dow), unlabelled summary row (mean of samples) ([4]; Buffering Agent 5: 1 E−02 M Acetic Acid, pH 5.20, series B): −1.109
Log(Dow) ([4]; Buffering Agent 6: 1 E−02 M MES, pH 6.15, samples B61-B63): −1.374 and −1.645
Log(Dow), unlabelled summary row (mean of samples) ([4]; Buffering Agent 6: 1 E−02 M MES, pH 6.15, series B (B61 prints #NUM!)): −1.510
Dow [4, 18]: 0.064 and 0.077 and 0.082
Log(Dow) [4, 18]: −1.191 and −1.113 and −1.086
Log(Dow), unlabelled summary row (mean of samples) ([4]; Buffering Agent 6: 1 E−02 M MES, pH 6.30, series A): −1.130
Dow [4, 19]: 0.150 and 0.120 and 0.105
Log(Dow) [4, 19]: −0.824 and −0.921 and −0.977
Log(Dow), unlabelled summary row (mean of samples) ([4]; Buffering Agent 7: 1 E−02 M HEPES, pH 6.75, series A): −0.908
Log(Dow), unlabelled summary row (mean of samples) ([4]; Buffering Agent 7: 1 E−02 M HEPES, pH 6.83, series B): −1.680
Dow [4, 20]: 0.130 and 0.132 and 0.107
Log(Dow) [4, 20]: −0.885 and −0.879 and −0.970
Log(Dow), unlabelled summary row (mean of samples) ([4]; Buffering Agent 8: 1 E−02 M HEPES, pH 7.42, series A): −0.912
Log(Dow), unlabelled summary row (mean of samples) ([4]; Buffering Agent 8: 1 E−02 M HEPES, pH 7.46, series B): −1.173
Dow [4, 21]: 0.110 and 0.074 and 0.132
Log(Dow) [4, 21]: −0.957 and −1.128 and −0.879
Log(Dow), unlabelled summary row (mean of samples) ([4]; Buffering Agent 9: 1 E−02 M HEPES, pH 8.00, series A): −0.988
Log(Dow), unlabelled summary row (mean of samples) ([4]; Buffering Agent 9: 1 E−02 M HEPES, pH 8.00, series B): −1.920
mean AUCinf ([5]; high-dose (150 mg/kg) females): 8305 ± 1607 ng·h/mL
mean AUCinf ([5]; high-dose (150 mg/kg) males): 12022 ± 5458 ng·h/mL
mean Cmax and AUCinf, females compared with males ([5]; low and mid doses): 1.7- to 2.4 fold
mean AUCinf ([5]; low-dose (37.5 mg/kg) females): 4741 ng·h/mL
mean AUCinf ([5]; low-dose (37.5 mg/kg) males): 1979 ± 777 ng·h/mL
mean AUCinf ([5]; mid-dose (75 mg/kg) females): 8610 ng·h/mL
mean AUCinf ([5]; mid-dose (75 mg/kg) males): 4317 ± 1721 ng·h/mL
mean t½ ([5]; oral, across dose groups, dogs): 30 to 54 min
Tmax ([5]; single oral capsule dose, 37.5, 75, and 150 mg/kg, dogs): 36 to 66 min
